Assay results: patent publication US12385042B2, “Cell-penetrating peptides” (VECTIOPEP OÜ, priority 2019, dated 2025)
Entries after “also recorded” stand apart in the source; their conditions may differ. Where a SMILES comes first, the peptide text is derived from it. Bridges are numbered along the chain shown (N, C = ends). Roman numbers before positions name the chains, in order. [ ]: non-standard residue; d: D form. The star is where a group is joined. Arachidoyl = CCCCCCCCCCCCCCCCCCCC(=O)*; Orn = NCCC[C@H](N)C(=O)O

Assays:
[1] = test system: U87 MG-luc2 human glioma cells, stably expressing luc2; test: Luciferase gene downregulation by CPP/siRNA (siLuc2) complexes; type: cell-based; details: for Red (%) (reduction, based on remaining luminescence on U87 cells post-treatment): siRNA against luciferase
Method: (§1) For assessing the siRNA mediated RNAi, CHO-GFP or U87-luc2 cells (5×10^5 cells per well) were seeded on a 24-well plate a day prior to the experiment and grown in serum containing media. On experiment day, prior to adding pre-formed complexes ( 1/10th of the final volume per well), media was replaced with fresh serum containing medium.
(§2) For complex formation, peptide was mixed with luc2 siRNA (sense 5′-[…]-3′ (SEQ ID NO:7), antisense 5′-[…] 3′ (SEQ ID NO:8), Metabion, Germany) or with siRNA against GFP (5′-[…] (SEQ ID NO:9), 3′-[…] (SEQ ID NO:10)) in mQ water (pH 5.3-6.3) using peptide to siRNA molar ratios (MR is the ratio of peptide to siRNA) […] and incubated at RT for 1 h. For siLuc2, the final concentration in media was 25 nM and for siGFP 100 nM. Cells were co-incubated with complexes for 4 h (37° C., 5% CO2), thereafter fresh serum containing media was added and followed by further incubation (20 h for siLuc2 or 44 h for siGFP complexes). Luciferase gene downregulation was measured from cell lysates with Promega luciferase assay system (Promega, Sweden) in combination with GLOMAX 96 microplate luminometer equipped with GLOMAX 1.9.2 software (Promega). GFP was measured after treatment from cell lysates on black 96-well plates by measuring total fluorescence (Symergy MX, BioTek Instruments, USA equipped with Gen5 1.10 software). The results were normalized to the protein content of each sample (DC Protein Assay, BioRad, USA).
Luciferase activity was determined as described in previous paragraph.
For determination of pH dependency on the transfection efficiency, complexes were formed at MR30, incubated and diluted before addition to cells to obtain siRNA final concentration 10 nM in transfection media. HEPES buffer supplemented with 10% FBS was used as transfection media. Complexes were co-incubated with cells for 4 h and then media was replaced with cell growth media. After further 20 h incubation cells were lysed and analyzed as described previously.
The experiment was carried out in serum containing media (10% FBS). CPP/siRNA complexes were formed at different molar ratios with siRNA concentration kept constant (50 nM in transfection media). Luminescence from luciferin-luciferase reaction was measured at 24 hours post-treatment from cell lysate. Results were normalized to protein content and luminescence values from untreated cells (100%).

CHO cells = test: pDNA (p-CMV-Luc2) transfection with CPP/pDNA complexes; type: cell-based; details: serum containing medium, CR1 to CR4, 24 h
Method: For the pDNA transfection experiment, CPP/pDNA nanoparticles were prepared by mixing […] of plasmid (p-CMV-Luc2) with the peptide in MQ water. Charge ratios from 1 to 4 (CR, equivalent to the nitrogen-to-phosphate ratio) were used. 50,000 CHO cells were seeded 24 hr before the experiment into 24-well plates, treated with complexes for 4 h in serum-containing medium, incubated for additional 20 hr, lysed and luminescence was measured.

[2] = test system: CHO stably expressing green fluorescent protein (GFP); test: GFP gene downregulation by CPP/siGFP complexes (lysate fluorescence, FACS, confocal); type: cell-based; details: for downregulation of GFP (average, cell lysate fluorescence): siGFP 100 nM
Method: as §1, §2
For flow cytometry analysis (FACS) analysis CHO-GFP cells were seeded and treated as described previously. After incubation, cells were washed with 1× PBS and detached from plates with trypsin-EDTA (0.25%), and re-suspended in PBS supplemented with FBS (5%) and transferred to transparent U-bottom 96-well plates. FACS was carried out with BD LSR II flow cytometer (BD Biosciences, San Jose, CA, USA) equipped with a 488 nm argon laser. Population of viable cells was determined from scatter plot: forward scattered plot (FSC) vs. side scattered light (SSC) plot. A minimum of 10,000 events from the viable cell population per sample were analyzed using BD FACS Diva software. Results are shown as the population with GFP signal lower than that of 0.1% of untreated cells.
For confocal microscopy 2×10^5 cells per chamber were seeded on NUNC 8-chamber plates. After treatment with complexes (25 ul of pre-formed CPP/siRNA complexes added to cells in 225 ul serum containing media), incubated (48 h) and GFP florescence images of cells were captured using confocal microscope Zeiss LSM 710 and excitation at 488 nm (493-616 filter).

[3] = Fluorescent dye (PicoGreen) intercalation and heparin displacement assay of CPP/siRNA complexes; type: physicochemical; details: for stability of complexes to heparin displacement (in words): complexes pre-formed at MR30
Method: Complexation of siRNA and CPPs was assessed by Quant-iT™ PicoGreen® (PG) (Thermo Fisher Scientific, USA) assay in mQ water. Complexes were prepared as described previously, following addition of diluted PG. For detection, complexes (⅕ of volume), water (3/5) and PG (1/5) working dilution was incubated for 5 minutes and fluorescence was measured by fluorimeter (λex=492 nm, λem=535 nm) (SynergyMx, BioTek). For heparin displacement, instead of water, heparin salt solution at different concentrations were used and complexes incubated at 37° C. for 30 min before addition of PG dilution. Complex formation was also confirmed by gel electrophoresis (details in section 2.11).

Proteinase K = target: T1, Proteinase K (Parengyodontium album, UniProt P06873); test: Stability of CPP/siRNA complexes to degradation by Proteinase K; type: physicochemical; details: Proteinase K >14.4 U per well
T1 construct: purchased Thermo Scientific, USA
T1 sequence (P06873 106-384): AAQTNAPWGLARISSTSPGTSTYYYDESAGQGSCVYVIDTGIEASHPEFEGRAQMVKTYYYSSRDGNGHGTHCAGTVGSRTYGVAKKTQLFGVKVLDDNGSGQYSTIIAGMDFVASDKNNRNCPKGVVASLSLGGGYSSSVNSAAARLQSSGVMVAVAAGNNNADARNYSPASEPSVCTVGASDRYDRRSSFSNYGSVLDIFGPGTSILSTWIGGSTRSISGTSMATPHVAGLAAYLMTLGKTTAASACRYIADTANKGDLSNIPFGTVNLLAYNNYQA
Method: To assess protection of siRNA from enzymatic degradation, after addition of PG dilution and initial measurement to set a starting point, Proteinase K (Thermo Scientific, USA) was added (>14 U/ml, 20 ul of mixture per well containing dilution of 120 ul of enzyme in 1 ml), co-incubated with complexes and fluorescence was measured over a 10 h period.

murine red blood cells = test: Membrane activity assay on murine red blood cells: hemolysis; type: cell-based, mouse; details: for hemolytic activity of free peptide (in words): up to 10 uM
Method: For evaluation of membrane activity of peptides, hemolysis assay was used. For this whole blood was collected from mouse (adult, BALB/c) saphenous vein into a heparinized collection tube. Blood was centrifuged (2300× g, 15 min) to separate cells (red blood cells-RBC) from the plasma. RBCs were washed according to following procedures.
RBCs were washed with 10 ml 0.9% NaCl saline and centrifuged (600× g, 15 min). Supernatant was discarded after each centrifugation. This was repeated at least 3 times. RBCs were re-suspended in 5 ml saline and distributed equally to tubes and centrifuged (600× g, 15 min). The cells were washed and re-suspended in 2× PBS with the required pH (pH 5.5-7.5). The hemoglobin content in stocks was measured after lysis of cells with equal volume of 0.1% Triton X100 supplemented with 5% glucose. The cell suspension was diluted accordingly for each pH value to obtain similar concentration range of hemoglobin in stocks. To each 100 ul of peptide solution 100 ul of 10% glucose was added, mixed, and equal volume (200 ul) of RBC in 2× PBS were added and gently mixed. Peptide solution with RBCs was incubated at 37° C. for 1 h with gentle mixing (max 300 rpm) after which samples were centrifuged to pellet intact cells from the solution. Hemoglobin from lysed cells was determined from each sample from the supernatant on transparent 96-well plates by measuring the absorbance at 540 nm.
Controls were incubated in similar manner as samples. As a non-hemolysis control mQ supplemented with glucose (0%) was used and for hemolytic control 0.1% TritonX-100 with glucose (100%) was used (cells are suspended in 2× PBS before addition). Final percent was calculated as follows: […]
For hemolytic concentration determination 2× PBS at pH 7.5 was used for incubation and 1× PBS at pH 7.5 was used for washing. Everything else is as described in previous paragraph.

organs of BALB/c mice = test: Gene delivery in vivo (CPP/pDNA, i.v., organ luminescence); set-up: species or system mouse; details: CR2 or CR4, 50 μg or 20 μg pDNA, 24 h
Method: For in vivo pDNA delivery studies BALB/c mice were used. Each animal received a single […] intravenous (i.v.) injection of the complexes at CR2 or CR4. Two doses of pDNA […] were used. After 24 hr, the mice were sacrificed using cervical dislocation, and whole organs were harvested and snap-frozen on dry ice. The organs were homogenized, and luminescence was measured.

| Molecule | Red (%) (reduction, based on remaining luminescence on U87 cells post-treatment) ([1]; CPP/siRNA complexes) | pDNA delivery / gene expression in vitro (in words) (CHO cells) | downregulation of GFP (average, cell lysate fluorescence) [2] | stability of complexes to heparin displacement (in words) [3] | stability of complexes to proteinase K (in words) (Proteinase K) | hemolytic activity of free peptide (in words) (murine red blood cells) | also measured |
| --- | --- | --- | --- | --- | --- | --- | --- |
| HHHHYHHGO^eILLKALKALAKAIL [NF702, group H6; C18 saturated fatty acid on N-terminus; C-terminally amidated] | 70 | almost yielded the same gene expression level as that of NF70 and NF55; also recorded: promising vectors for pDNA transfection |  |  |  |  |  |
| HYHHGO^eILLKALKALAKAIL [NF727, group H3; C22 saturated fatty acid on N-terminus; C-terminally amidated] | 43 | promising vectors for pDNA transfection |  |  |  |  |  |
| HHHYHHGO^eILLKALKALAKAIL [NF716, group H5; C20 saturated fatty acid on N-terminus; C-terminally amidated] | 65 | promising vectors for pDNA transfection |  |  |  |  |  |
| CCCCCCCCCCCCCCCCCCCC(=O)N[C@@H](Cc1c[nH]cn1)C(=O)N[C@@H](Cc1c[nH]cn1)C(=O)N[C@@H](Cc1c[nH]cn1)C(=O)N[C@@H](Cc1c[nH]cn1)C(=O)N[C@@H](Cc1c[nH]cn1)C(=O)N[C@@H](Cc1c[nH]cn1)C(=O)NCC(=O)NCCC[C@H](N)C(=O)N[C@H](C(=O)N[C@@H](CC(C)C)C(=O)N[C@@H](CC(C)C)C(=O)N[C@@H](CCCCN)C(=O)N[C@@H](C)C(=O)N[C@@H](CC(C)C)C(=O)N[C@@H](CCCCN)C(=O)N[C@@H](C)C(=O)N[C@@H](CC(C)C)C(=O)N[C@@H](C)C(=O)N[C@@H](CCCCN)C(=O)N[C@@H](C)C(=O)N[C@H](C(=O)N[C@@H](CC(C)C)C(N)=O)[C@@H](C)CC)[C@@H](C)CC [NF705] (I: H-[Orn]ILLKALKALAKAIL-NH2 / II: Arachidoyl-HHHHHHG; amide I:1-II:C) | 52 |  | lower efficiency than H6-C20 | significantly higher stability to heparin displacement than NF70 peptide and even NF72 peptide | formed the most stable complexes with siRNA resistant to proteinase K | significantly higher | accessibility of siRNA in complexes (dye intercalation) ([3]; MR30, no heparin): low accessibility of siRNA; pH dependent hemolytic activity (in words) (murine red blood cells; peptide 0.75 uM, buffer pH 5.5-7.5): markedly hemolytic already at pH 7.5 |
| CCCCCCCCCCCCCCCCCC(=O)N[C@@H](C)C(=O)NCC(=O)N[C@@H](Cc1ccc(O)cc1)C(=O)N[C@@H](CC(C)C)C(=O)N[C@@H](CC(C)C)C(=O)NCC(=O)N[C@@H](CCCCNC(=O)[C@H](CCCCNC(=O)[C@H](CCCCNC(=O)CCC(=O)NCCN(C)CCNc1ccnc2cc(C(F)(F)F)ccc12)NC(=O)CCC(=O)NCCN(C)CCNc1ccnc2cc(C(F)(F)F)ccc12)NC(=O)[C@H](CCCCNC(=O)CCC(=O)NCCN(C)CCNc1ccnc2cc(C(F)(F)F)ccc12)NC(=O)CCC(=O)NCCN(C)CCNc1ccnc2cc(C(F)(F)F)ccc12)C(=O)N[C@H](C(=O)N[C@@H](CC(N)=O)C(=O)N[C@@H](CC(C)C)C(=O)N[C@@H](CCCCN)C(=O)N[C@@H](C)C(=O)N[C@@H](CC(C)C)C(=O)N[C@@H](C)C(=O)N[C@@H](C)C(=O)N[C@@H](CC(C)C)C(=O)N[C@@H](C)C(=O)N[C@@H](CCCCN)C(=O)N[C@@H](CCCCN)C(=O)N[C@H](C(=O)N[C@@H](CC(C)C)C(N)=O)[C@@H](C)CC)[C@@H](C)CC [PF6, reference compound] | 84 |  | highest | only about a half of that in NF55/siRNA complexes | significantly lower stability to longer exposure to enzyme | most hemolytic | luciferase downregulation efficiency (in words) ([1]; CPP/siRNA complexes, comparison between CPPs): most efficient peptides even at low MRs; downregulation of reporter gene on cells in buffer, pH dependence ([1]; HEPES buffer pH 6.0 vs 7.4, siRNA 10 nM): pH-dependent; IC50 ([1]; complexes formed at MR30, average, read-out: IC50 (siRNA concentration), luciferase downregulation): 10.4 nM; cells with downregulated reporter gene (GFP signal below threshold), FACS ([2]; CHO-GFP, CPP/siGFP complexes): approximately 70%; GFP signal in confocal images ([2]; live cells treated with CPP/siGFP complexes): detected GFP signal was the lowest |
| HYHHGO^eILLKALKALAKAIL [NF725, group H3; C18 saturated fatty acid on N-terminus; C-terminally amidated] | 60 | promising vectors for pDNA transfection |  |  |  |  | reporter gene expression in organs after i.v. CPP/pDNA (in words) (organs of BALB/c mice): high gene expression level in liver; also recorded: higher at CR4 than CR2 |
